US4504464A, “2,3-Dialkoxypropyl glyceryl ether and its preparation process as well as cosmetic composition containing same” (Kao Soap Co., Ltd., priority 1981, dated 1985)

Experiments:
Viscosity (27° C.) = assay type: physicochemical
Procedure: (§1) Physical and chemical properties of the compound prepared in Example 1, which compound relates to the present invention, and an example of its application for cosmetic compositions will be described below.
(§2) Viscosity Water-solubility (25° )

[1] = Water-solubility (25° C.); assay type: physicochemical; settings: for Water-solubility (25° C.) 10%: 10% content of the diglycerin dialkyl ether; for Water-solubility (25° C.) 50%: 50% content of the diglycerin dialkyl ether
Procedure: as §1, §2
* Content (%) of the diglycerin dialkyl ether according to this invention
These figures will have the same significance in subsequent examples.

Compound | Viscosity (27° C.) (Viscosity (27° C.)) [cp] | Water-solubility (25° C.) 10% [1] | Water-solubility (25° C.) 50% [1]
2-butoxy-3-isostearoxypropyl glyceryl ether [Example 4] | 240 |  | 
2-methoxy-3-isostearoxypropyl glyceryl ether [Example 3] | 382 |  | 
2-octoxy-3-isostearoxypropyl glyceryl ether [Example 5] | 280 | Undissolved | Undissolved
CCCCCCCCOCC(COCC(O)CO)OC (stereo not shown) [Example 1, 2-methoxy-3-octoxypropyl glyceryl ether] | 423 | Dissolved | Dissolved
CCCCCCCCCCCCOCC(COCC(O)CO)OC (stereo not shown) [Example 2, 2-methoxy-3-dodecyloxypropyl glyceryl ether] | 504 | Dissolved | 
